Assay results taken from ChEMBL document CHEMBL6153052, “Development of molecular Trojan horses targeting New Delhi metallo-β-lactamase-1 for the restoration of meropenem susceptibility in drug-resistant bacteria” (Eur J Med Chem, 2025).
In brackets after ≈: the same amount, converted by molar mass. Activity calls are given as the source filed them. The calls are words filed in the database; no cut-off is given here.

Assays:
[1] = biological target: Metallo-beta-lactamase type 2 (Bacteria) (UniProt C7C422); assay: Inhibition of NDM-1 (unknown origin) using nitrocefin as substrate assessed as residual activity at 64 ug/ml preincubated for 15 mins followed by substrate addition by absorbance based assay relative to control; settings: dose 64.0 µg/ml
[2] = biological target: T1, Metallo-beta-lactamase type 2 (Bacteria, UniProt C7C422); assay: Inhibition of NDM-1 (unknown origin) using nitrocefin as substrate assessed as residual activity preincubated for 15 mins followed by substrate addition by absorbance based assay
[3] = biological target: T1, Metallo-beta-lactamase type 2; assay: Inhibition of NDM-1 (unknown origin)
Escherichia coli [4] = assay: Antibacterial activity against Escherichia coli BL21 assessed as minimum bacteriostatic concentration incubated for 20 hrs; type: functional
Klebsiella pneumoniae [5] = assay: Antibacterial activity against Klebsiella pneumoniae K-N-1 assessed as minimum bacteriostatic concentration incubated for 20 hrs; type: functional
Acinetobacter baumannii [6] = assay: Antibacterial activity against Acinetobacter baumannii aba assessed as minimum bacteriostatic concentration incubated for 20 hrs; type: functional
Escherichia coli [7] = assay: Antibacterial activity against Escherichia coli ZJ487 assessed as minimum bacteriostatic concentration incubated for 20 hrs; type: functional
Escherichia coli [8] = assay: Synergistic antibacterial activity against Escherichia coli BL21 assessed as minimum bacteriostatic concentration of meropenem at 8 ug/ml incubated for 20 hrs; type: functional; settings: dose 8 µg/ml
Klebsiella pneumoniae [9] = assay: Synergistic antibacterial activity against Klebsiella pneumoniae K-N-1 assessed as minimum bacteriostatic concentration of meropenem at 8 ug/ml incubated for 20 hrs; type: functional; settings: dose 8 µg/ml
Acinetobacter baumannii [10] = assay: Synergistic antibacterial against Acinetobacter baumannii aba assessed as minimum bacteriostatic concentration of meropenem at 8 ug/ml incubated for 20 hrs; type: functional; settings: dose 8 µg/ml
Escherichia coli [11] = assay: Synergistic antibacterial activity against Escherichia coli ZJ487 assessed as minimum bacteriostatic concentration of meropenem at 8 ug/ml incubated for 20 hrs; type: functional; settings: dose 8 µg/ml
Escherichia coli [12] = assay: Synergistic antibacterial activity against Escherichia coli BL21 assessed as fractional inhibitory concentration index at 8 ug/ml incubated for 20 hrs in presence of meropenem; type: functional; settings: dose 8 µg/ml
Klebsiella pneumoniae [13] = assay: Synergistic antibacterial activity against Klebsiella pneumoniae K-N-1 assessed as fractional inhibitory concentration index at 8 ug/ml incubated for 20 hrs in presence of meropenem; type: functional; settings: dose 8 µg/ml
Acinetobacter baumannii [14] = assay: Synergistic antibacterial against Acinetobacter baumannii aba assessed as fractional inhibitory concentration index at 8 ug/ml incubated for 20 hrs in presence of meropenem; type: functional; settings: dose 8 µg/ml
Escherichia coli [15] = assay: Synergistic antibacterial activity against Escherichia coli ZJ487 assessed as fractional inhibitory concentration index at 8 ug/ml incubated for 20 hrs in presence of meropenem; type: functional; settings: dose 8 µg/ml
THP-1 = assay: Cytotoxicity against human THP-1 cells assessed as survival rate at 128 ug/ml incubated for 48 hrs by MTT assay; type: functional; settings: read-out: Survival
[16] = Cytotoxicity against HEK293T cells assessed as survival rate at 128 ug/ml incubated for 48 hrs by MTT assay; type: toxicity, cell-based, HEK-293T; settings: human, at 128 µg/mL, read-out: Survival
Escherichia coli [17] = assay: Synergistic antibacterial activity against Escherichia coli BL21 expressing NDM-1 assessed as fractional inhibitory concentration index upto 64 ug/ml incubated for 24 hrs in presence of meropenem by microdilution checkerboard analysis; type: functional; settings: dose <= 64 µg/ml
Escherichia coli [18] = assay: Synergistic antibacterial activity against Escherichia coli ZJ487 assessed as fractional inhibitory concentration index upto 64 ug/ml incubated for 24 hrs in presence of meropenem by microdilution checkerboard analysis; type: functional; settings: dose <= 64 µg/ml
Escherichia coli [19] = assay: Synergistic bactericidal activity against Escherichia coli BL21 expressing NDM-1 at 16 ug/ml incubated for 8 hrs in presence of meropenem; type: functional, organism-based; settings: dose 16.0 µg/ml
[20] = Metabolic stability in rat plasma assessed as parent compound remaining measured after 48 hrs by HPLC analysis; type: ADME, cell-free; settings: read-out: Stability
[21] = Metabolic stability in rat liver homogenate assessed as parent compound remaining measured after 48 hrs by HPLC analysis; type: ADME, tissue-based; settings: read-out: Stability
Escherichia coli [22] = assay: Synergistic bactericidal activity against Escherichia coli ZJ487 at 16 ug/ml incubated for 8 hrs in presence of meropenem; type: functional, organism-based; settings: dose 16.0 µg/ml
Escherichia coli [23] = assay: Antibacterial activity against Escherichia coli ZJ487 infected in BALB/c mouse assessed as reduction in bacterial count in liver at 10 mg/kg, sc administered at every 12 hr interval measured after 42 hrs; type: functional, organism-based
Escherichia coli [24] = assay: Antibacterial activity against Escherichia coli ZJ487 infected in BALB/c mouse assessed as reduction in bacterial count in spleen at 10 mg/kg, sc administered at every 12 hr interval measured after 42 hrs; type: functional, organism-based
Escherichia coli [25] = assay: Synergistic antibacterial activity against Escherichia coli ZJ487 infected in BALB/c mouse assessed as reduction in bacterial count in liver at 10 mg/kg, sc administered at every 12 hr interval measured after 42 hrs in presence of meropenem; type: functional, organism-based
Escherichia coli [26] = assay: Synergistic antibacterial activity against Escherichia coli ZJ487 infected in BALB/c mouse assessed as reduction in bacterial count in spleen at 10 mg/kg, sc administered at every 12 hr interval measured after 42 hrs in presence of meropenem; type: functional, organism-based
[27] = biological target: T1, Metallo-beta-lactamase type 2; assay: Inhibition of C-terminal His-tagged NDM-1 (unknown origin) extracted from Escherichia coli BL21 (DE3) using fluorescent cephalosporin as substrate preincubated for 10 mins followed by substrate addition by fluorescence based assay

T1 sequence (C7C422 whole entry): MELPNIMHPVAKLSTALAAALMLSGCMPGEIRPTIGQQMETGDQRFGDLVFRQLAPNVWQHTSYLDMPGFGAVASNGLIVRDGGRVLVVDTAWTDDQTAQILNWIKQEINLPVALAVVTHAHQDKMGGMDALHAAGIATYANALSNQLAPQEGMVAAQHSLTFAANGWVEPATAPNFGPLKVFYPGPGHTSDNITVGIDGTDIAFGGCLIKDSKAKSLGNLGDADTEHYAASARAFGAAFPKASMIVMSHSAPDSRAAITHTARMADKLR
Sequence of Metallo-beta-lactamase type 2 (Bacteria) (C7C422 whole entry): as above

## Cc1cc(Cl)cc(CN[C@@H]2C(=O)N3C(C(=O)O)=C(C[Se]c4ccccc4C(=O)Nc4ccccc4)CS[C@H]23)c1
[1]
  Activity: 30%
[2]
  IC50: 72.9 µM

## N#Cc1cc(Cl)cc(CN[C@@H]2C(=O)N3C(C(=O)O)=C(C[Se]c4ccccc4C(=O)Nc4ccccc4)CS[C@H]23)c1
[1]
  Activity: 42.3%

## O=C(O)C1=C(C[Se]c2ccccc2C(=O)Nc2ccccc2)CS[C@@H]2[C@H](NCc3cc(F)cc(F)c3)C(=O)N12
[1]
  Activity: 41.1%

## O=C(Cc1ccccc1)N[C@H]1C(=O)N2C(C(=O)O)=C(C[S+]([O-])CCC(=O)Oc3c(F)c(F)c(F)c(F)c3F)C[S+]([O-])[C@@H]12 (stereo not given in full)
[3]
  IC50: 390 nM

## O=C(O)C1=C(C[Se]c2ccccc2C(=O)Nc2ccccc2)CS[C@@H]2[C@H](NCc3cc(C(F)(F)F)cc(C(F)(F)F)c3)C(=O)N12
[1]
  Activity: 61.6%

## O=C(O)C1=C(C[Se]c2ccccc2C(=O)Nc2ccccc2)CS[C@@H]2[C@H](NC(=O)C3CC3)C(=O)N12
[1]
  Activity: 47.3%
[2]
  IC50: 150 µM

## Cc1cc(C)cc(CN[C@@H]2C(=O)N3C(C(=O)O)=C(C[Se]c4ccccc4C(=O)Nc4ccccc4)CS[C@H]23)c1
[1]
  Activity: 69.3%

## CC(=O)N[C@@H]1C(=O)N2C(C(=O)O)=C(C[Se]c3ccccc3C(=O)Nc3ccccc3)CS[C@H]12
[1]
  Activity: 88.2%

## O=C(O)C1=C(C[Se]c2ccccc2C(=O)Nc2ccccc2)CS[C@@H]2[C@H](NCc3ccccc3)C(=O)N12
[1]
  Activity: 17.8%
[2]
  IC50: 37.8 µM

## O=C(O)C1=C(C[Se]c2ccccc2C(=O)Nc2ccccc2)CS[C@@H]2[C@H](NCc3cc(Cl)cc(Cl)c3)C(=O)N12
[1]
  Activity: 6.53%
[2]
  IC50: 7.03 µM
Escherichia coli [4]
  MIC: 128 µg/mL (≈ 198 µM)
Klebsiella pneumoniae [5]
  MIC: 64 µg/mL (≈ 98.9 µM)
Acinetobacter baumannii [6]
  MIC: > 512 µg/mL
Escherichia coli [7]
  MIC: 32 µg/mL (≈ 49.4 µM)
Escherichia coli [8]
  MIC: 16 µg/mL
Klebsiella pneumoniae [9]
  MIC: 16 µg/mL
Acinetobacter baumannii [10]
  MIC: 32 µg/mL
Escherichia coli [11]
  MIC: 1 µg/mL
Escherichia coli [12]
  fractional inhibitory concentration index (FICI): 0.141
Klebsiella pneumoniae [13]
  fractional inhibitory concentration index (FICI): 0.281
Acinetobacter baumannii [14]
  fractional inhibitory concentration index (FICI): 0.078
Escherichia coli [15]
  fractional inhibitory concentration index (FICI): 0.093
THP-1
  viability at 128 µg/mL: > 100%
[16]
  viability at 48 h, 128 ug/ml: > 100%
Escherichia coli [17]
  fractional inhibitory concentration index (FICI): 0.25
Escherichia coli [18]
  fractional inhibitory concentration index (FICI): 0.125
Escherichia coli [19]
  Activity: Not active; Compound Did Not Eradicate Bacteria Completely But Maintained A State Of Significantly Lower Level Compared To Meropenem Alone
[20]
  remaining at 48 h: > 80%
[21]
  remaining at 48 h: 59.3%
Escherichia coli [22]
  Activity: Not active; Compound Did Not Eradicate Bacteria Completely But Maintained A State Of Significantly Lower Level Compared To Meropenem Alone
Escherichia coli [23]
  Activity: inactive
Escherichia coli [24]
  Activity: inactive
Escherichia coli [25]
  Activity: Active
Escherichia coli [26]
  Activity: Active

## O=C(O)C1=C(C[Se]c2ccccc2C(=O)Nc2ccccc2)CS[C@@H]2[C@H](NC(=O)n3cnnn3)C(=O)N12
[1]
  Activity: 72.9%

## O=C(O)C1=C(C[Se]c2ccccc2C(=O)Nc2ccccc2)CS[C@@H]2[C@H](NC(=O)c3ccccc3)C(=O)N12
[1]
  Activity: 22.3%
[2]
  IC50: 62.2 µM

## O=C(Cc1ccccc1)N[C@@H]1C(=O)N2C(C(=O)O)=C(C[Se]c3ccccc3C(=O)Nc3ccccc3)CS[C@H]12
[1]
  Activity: 23.9%
[2]
  IC50: 90.3 µM

## CC(C)(C)OC(=O)NCCCCCCn1[se]c2ccccc2c1=O
[3]
  IC50: 1260 nM

## CS(=O)(=O)N[C@@H]1C(=O)N2C(C(=O)O)=C(C[Se]c3ccccc3C(=O)Nc3ccccc3)CS[C@H]12
[1]
  Activity: 48.9%
[2]
  IC50: 69.7 µM

## CC1=C(C(=O)O)N2C(=O)[C@@H](NCc3cc(Cl)cc(Cl)c3)[C@H]2SC1
[1]
  Activity: 99.6%

## O=C(O)C1=C(C[Se]c2ccccc2C(=O)Nc2ccccc2)CS[C@@H]2[C@H](NCC3CC3)C(=O)N12
[1]
  Activity: 78.2%

## O=C(O)C1=C(C[Se]c2ccccc2C(=O)Nc2ccccc2)CS[C@@H]2[C@H](NS(=O)(=O)c3ccccc3)C(=O)N12
[1]
  Activity: 48.4%

## O=C(O)C1=C(C[Se]c2ccccc2C(=O)Nc2ccccc2)CS[C@@H]2[C@H](NS(=O)(=O)C3CC3)C(=O)N12
[1]
  Activity: 44.1%
[2]
  IC50: 114 µM

## O=C(O)C1=C(C[Se]c2ccccc2C(=O)Nc2ccccc2)CS[C@@H]2[C@H](NCc3ccccc3Cl)C(=O)N12
[1]
  Activity: 66.2%

## O=C(O)C1=C(C[Se]c2ccccc2C(=O)Nc2ccccc2)CS[C@@H]2[C@H](NS(=O)(=O)Cc3ccccc3)C(=O)N12
[1]
  Activity: 63.8%

## O=C(O)C1=C(C[Se]c2ccccc2C(=O)Nc2ccccc2)CS[C@@H]2[C@H](NC(=O)c3cccs3)C(=O)N12
[1]
  Activity: 49.5%

## O=C(Cc1ccccc1)N[C@@H]1C(=O)N2C(C(=O)O)=C(CSc3cccc4cccnc34)CS[C@H]12
[27]
  IC50: 2310 nM

## CCN(CC)[C@@H]1C(=O)N2C(C(=O)O)=C(C[Se]c3ccccc3C(=O)Nc3ccccc3)CS[C@H]12
[1]
  Activity: 70.2%

## O=C(O)C1=C(C[Se]c2ccccc2C(=O)Nc2ccccc2)CS[C@@H]2[C@H](NCc3cc(F)cc(Cl)c3)C(=O)N12
[1]
  Activity: 27.8%
[2]
  IC50: 77.8 µM

## N#CCC(=O)N[C@@H]1C(=O)N2C(C(=O)O)=C(C[Se]c3ccccc3C(=O)Nc3ccccc3)CS[C@H]12
[1]
  Activity: 61.7%

## COc1cc(CN[C@@H]2C(=O)N3C(C(=O)O)=C(C[Se]c4ccccc4C(=O)Nc4ccccc4)CS[C@H]23)cc(OC)c1
[1]
  Activity: 55.8%

## CCOC(=O)[C@]1(CS)C[C@H](C(=O)O)C(C)(C)S1
[3]
  IC50: 40 nM

## O=C(O)C1=C(C[Se]c2ccccc2C(=O)Nc2ccccc2)CS[C@@H]2[C@H](NCc3cccc(Cl)c3)C(=O)N12
[1]
  Activity: 60.9%

## O=C(O)C1=C(C[Se]c2ccccc2C(=O)Nc2ccccc2)CS[C@@H]2[C@H](NCc3cc(Cl)nc(Cl)c3)C(=O)N12
[1]
  Activity: 68.1%

## C[C@@H](O)[C@H]1C(=O)N2C(C(=O)O)=C(S[C@@H]3CN[C@H](C(=O)N(C)C)C3)[C@H](C)[C@H]12 [MEROPENEM]
Klebsiella pneumoniae [5]
  MIC: > 512 µg/mL
Acinetobacter baumannii [6]
  MIC: > 512 µg/mL
Escherichia coli [23]
  Activity: inactive
Escherichia coli [24]
  Activity: inactive

## O=C(O)C1=C(C[Se]c2ccccc2C(=O)Nc2ccccc2)CS[C@@H]2[C@H](NCc3ccc(Cl)cc3)C(=O)N12
[1]
  Activity: 54%

## O=C(O)C1=C(C[Se]c2ccccc2C(=O)Nc2ccccc2)CS[C@@H]2[C@H](NS(=O)(=O)c3cccs3)C(=O)N12
[1]
  Activity: 51.6%

## O=c1c2ccccc2[se]n1-c1ccccc1 [EBSELEN]
[1]
  Activity: 8.05%
[2]
  IC50: 16 µM

## COc1cc(Cl)cc(CN[C@@H]2C(=O)N3C(C(=O)O)=C(C[Se]c4ccccc4C(=O)Nc4ccccc4)CS[C@H]23)c1
[1]
  Activity: 37.9%

## O=C(O)C1=C(C[Se]c2ccccc2C(=O)Nc2ccccc2)CS[C@@H]2[C@H](NCc3cccs3)C(=O)N12
[1]
  Activity: 25.2%
[2]
  IC50: 52.9 µM

## O=c1c2ccccc2[se]n1-c1ncccc1-c1ccc(F)cc1
[3]
  IC50: 11300 nM
